From patent US9890106B2, “Anti-cancer lead molecule” (KING ABDULLAH UNIVERSITY OF SCIENCE AND TECHNOLOGY, priority 2012, dated 2018) come the findings set out here.

“And” between values parts separate entries of the source, which are not always exact repeats. Equal entries are not always repeated. Where two headings read alike, the source gives them in different places.

The test system of data set [1] is MCF-7 (human breast cancer cell line). In words: MTT cytotoxicity assay, MCF-7. As for the experimental part: (§1) The cytotoxicity of plumbagin and derivative ‘A’ was estimated by MTT assay. Cells were plated in a 384-well culture plates (2000 cells per well in 20 μl of media) for 24 h and cells were treated with various concentrations (0, 1.0, 5.0, 10.0, 20.0, 40.0, 80.0 and 100.0 μM) for 12 hr, 24 hr, 36 hr and 48 hr. Following desired incubation time, 5 μl of sterile 5 mg/ml MTT (3-(4,5-Dimethylthiazol-z-yl)-2,5diphenyltetrazolium bromide) (Sigma) dissolved in PBS was added to each well and the cells were incubated for another 4 hr followed by the addition of 30 μl of solubilisation solution (10% SDS, 10 mM HCl) and incubation for 16 hr at 37° C. The OD of each well at 595 nm was determined using a microtiter plate reader (BMG Pherastar).
On the technique in general: Tetrazolium dyes change colour on reduction, which living cells bring about.

For data set [2], the system named is BJ cell line (human normal fibroblast cells). Kind of data set: MTT cytotoxicity assay, BJ normal fibroblasts. How it is done: as §1
Data set [3] deals with HepG2 (Hepatocellular carcinoma) cell line. Kind of data set: MTT cytotoxicity assay, HepG2 (in vitro hepatotoxicity model). Conditions: for IC50: read-out: IC50 against HepG2. How it is done:
as §1

The test system of data set [4] is MCF-7 cells. In words: APOPercentage dye-uptake apoptosis assay, MCF-7. Format: cell-based, human. As for the experimental part:
(§2) To further test if the cancer cells in present investigation are dying via apoptosis, a dye inclusion assay called APOPercentage was performed. APOPercentage™ is a dye-uptake assay that detects apoptotic cells during phospholipid phosphatidylserine (PS) trans-membrane movement. It has been established previously that APOPercentage™ can be used to detect early stages of apoptosis as efficiently as other technologies like Annexin V.
(§3) The cells were plated in 96 well plates at a density of 5×10^3 cells per well in triplicate in 90 μl of media. The cells were treated with 10 μl of desired concentration of plumbagin and derivative ‘A’ in DMEM media. The cells were incubated at 37° C. for 12 hr and 24 hr in different plates. 5 mM H2O2 was treated for 30 minutes to 1 hour as a positive control. The cells were stained with APOPercentage dye as per instructions from the vendor (Biocolor, UK). The cells were photographed with Nikon TS100 microscope. The OD was measured at 550 nm absorbance using BMG Pherastar and percentage of cells taking up APOPercentage dye was calculated.

Another data set relates to BJ cells. In words: APOPercentage dye-uptake apoptosis assay, BJ. The class given is cell-based, human. How it is done: as §2, §3
In a further data set the test system is MCF-7 tumor. Kind of data set: MCF-7 xenograft tumor inhibition in nude mice. Details: Tumor weight at autopsy, individual mouse (1-5) / Tumor weight at autopsy, AV: unit not given here. Format: in vivo. Conditions: for Tumor volume measured externally, AV / Tumor volume measured externally, individual mouse (1-5) / Tumor weight at autopsy, AV / Tumor weight at autopsy, individual mouse (1-5) / Tumor inhibition rate (C − T)/C × 100%, tumor volume / Tumor inhibition rate (C − T)/C × 100%, tumor weight: Compound A 5 mg/kg, Compound P 2 mg/kg, i.p, qd*21 days; for Tumor inhibition rate (C − T)/C × 100%, tumor volume: based on tumor volume by calipers; for Tumor inhibition rate (C − T)/C × 100%, tumor weight: based on tumor weight at autopsy. How it is done: Amplified and implanted (S.C.) the cancer cells (MCF-7) into 4 nude mice with 1.0×10^7 cells in 0.1 ml PBS plus matrigel (1:1) /mouse, when tumors reach 300-500 mm^3, the tumor masses were harvested, cut into small pieces of approximately 1-2 mm^3, and then surgically implanted into the 42 new nude mice for model set up (eventually 30 tumor-bearing mice are selected).
(§4) When the tumor size reached a volume of 150 (150-220) mm^3, the tumor-bearing nude mice derived from MCF-7 cells were randomly assigned into 3 groups (10 mice/group): Group 1 was served as vehicle group (25% PEG400, 200 μl/20 g mouse, i.p, qd for 21 days and 25% PEG400, 400 μl/20g mouse, i.p, qd for 13 days), group 2 was administrated with derivative ‘A’ (5 mg/kg for 21 days and 10 mg/kg for 13 days, i.p, qd), group 3 was administrated with plumbagin (2 mg/kg for 21 days, i.p, qd). The administration period lasted for 3 weeks and 5 weeks. The detailed sacrificing schedule is described in section 5.
(§5) The tumor volume was measured every other day with calipers, and the body weight was measured immediately before measuring the tumor volume throughout the whole study. If the body weight loss is approaching 20%, stop dosing or decreased dosage will be carried out.
Tumor sizes were measured every other day in two dimensions using a caliper, and the volume were expressed in mm^3 using the formula: V=½×a×b^2 where a and b are the long and short diameters of the tumor, respectively.
The tumor mass were weighed and photographed at the end of the experiment after harvested.
Inhibition rate (%)=(average tumor volume of control group-average cancer volume of test group)/average tumor volume of control group ×100%

On data set [5], the source says:
At the end of the experiment (the 22nd day after initiating drug treatment), the blood from some tumor-bearing mice per group (4 mice from the group 1, 5 mice from the group 2, 4 mice from the group 3) were collected by cardiac puncture, and the mice were sacrificed by cervical dislocation while under deep anesthesia. The other tumor-bearing mice from each group (5 mice from the group 1, 5 mice from the group 2) were sacrificed after another 13 days treatment (the 35th day after initiating drug treatment), the blood was collected while sacrificing the mice. The tumor samples were harvested, weighed, cut into small pieces and snap frozen in liquid nitrogen for RNA extraction. The liver were harvested and fixed in 10% NBF, and embedded in paraffin for histology analysis.
Blood were collected from all animals by terminal bleed for subsequent serum preparation, and serum was prepared at the end of the study for each animal. Serum samples were frozen in microcentrifuge tube at −80° C. To test the liver toxicity of the two compounds, biochemical dictators (ALT, AST) were analyzed in all the serum samples no more than 3 days after collection. The excess serum samples would be sent to client.
The serum was collected as explained above in methods and was used to assess the activity of ALT (alanine aminotransferase) and AST (aspartate aminotransferase).

Data set [6] in a line: General toxicity in nude mice (mortality, tolerance, body weight). The class given is in vivo. How it is done:
as §4
If abnormal appearance and behavior or signs of morbidity and/or mortality was seen through the cage side observation, the veterinarian would be notified and proper physical examination and/or necropsy would be performed. The food consumption in each group would be recorded. Frequency: daily just after the cell inoculation and twice a day thereafter starting on first dosing.
as §5
The use of different treatment concentrations (dosages) of derivative ‘A’ and plumbagin was due to the high toxicity of plumbagin at 5 mg/kg dose (8 mice died due to toxicity in first few days).

A short description of data set [7]: Liver tissue H&E staining. Conditions: FIG. 12. The class given is in vivo, nude mice. As for the experimental part: To test the liver toxicity of the two compounds, livers were harvested from all animals while sacrificing the animals. One piece of the liver was fixed in 10% NBF, and embeded in paraffin for pathology analysis, 1 paraffin block was prepared from each liver sample, 2 slides were used for H&E staining.
The following indications were examined on the photographs for liver tissue H&E staining (FIG. 12): (1) If the liver cells produce fatty degeneration, necrosis, hepatic lobule inflammation or not; (2) If the hepaticus sinus produce dilation or hyperaemia or not; (3) If the hepaticus portal area produce the inflammation or fibrous tissue hyperplasia or not. According to pathology degree from low to high: no lesion “−”, minor lesion “±”, low lesion “+”, middle lesion “++”, high lesion “+++”, highest lesion “++++”. […] The vehicle control is rather showing more toxicity to liver as compared to compounds under testing.

In data set [8] the test system is MCF-7 cells. Kind of data set: Microarray expression and pathway analysis in MCF-7 cells. The class given is cell-based, human. Conditions: for 'Atherosclerosis signaling' pathway: MCF-7 induced with 5 and 10 μM, IPA pathway mapping. How it is done: Microarray analysis was performed in an effort to identify the possible mechanism of action of derivative ‘A’. The MCF-7 cells induced with 5 and 10 μM of derivative ‘A’ and plumbagin were subjected to microarray experiments and the fold-change in expression was calculated as compared to untreated samples. The lists of differentially expressed genes were mapped to pathways using Ingenuity Pathway Analysis (IPA) tool and several key pathways affected by treatment of derivative ‘A’ and plumbagin were identified. ‘Atherosclerosis signaling’ was one of the key pathways that were affected by derivative ‘A’ and not the plumbagin.

The mark [9] stands for this setting: MTT time-course screening (12, 24, 36, 48 hr).
[10] abbreviates: after 24 hr (20 μM per preceding sentence).

Broadly, the IC50 is the concentration needed to halve the response being measured. Turning to `CC(=O)Oc1cccc2c1C(=O)C=C(C)C2=O` [derivative ‘A’, acetyl plumbagin], the “cytotoxicity in MCF-7” value in data set [1] (10 μM, 12 hr of treatment) is reported as “comparative to plumbagin”. The “inhibits metabolic activity of cancer cells” value in data set [1] (10 μM, after 12 hr of treatment (FIG. 2)) was found to be 90%. In addition, the “activity against MCF-7 cells” value in [1] (setting [9]) is on record as “selective apoptotic activity”. Further, the “toxicity against BJ cell line” value in [2] (10 μM, 12 hr) is listed as “almost nil”. Besides, the “toxicity against BJ cell line, times less than plumbagin” value in data set [2] (10 μM, 24 hr, compared to plumbagin at the same concentration) was around 20 times. In addition, in [2] (20 μM, after 36 hr of treatment (FIG. 2)), the “normal cells BJ inhibited” value is 20%. For the same molecule, the “effect on normal fibroblasts” value in data set [2] (setting [9]) is “relatively unaffected”. Besides, in data set [2] (after 36 hr of induction), the “toxicity in BJ cell line, folds less than Plumbagin” value is reported as around 4.5 folds. Moreover, the “hepatotoxicity (data based on HepG2 cell line)” value in data set [3] (setting [9]) is “negligible”. Moreover, the half-maximal inhibitory concentration (IC50) in data set [3] (HepG2, 24 hr of treatment) came to 41.2 µM. For the same molecule, the “apoptosis induced in cancer cells” value in the data set with MCF-7 cells [4] (10 μM, 24 hr) is reported as “about 50%”. Also, in the data set on MCF-7 cells [4] (setting [10]), the “cancer cells undergoing apoptosis” value is given as 100%. The “safety for normal cells” value in the data set with BJ cells (10 μM, treatment for 24 hr) is reported as “safe”. Moreover, the “normal cells undergoing apoptosis” value in the data set on BJ cells (setting [10]) was 20%. The “effect on normal cells (growth inhibition and apoptosis)” value with BJ cells (up to 20 μM, treatment for 12 hr) is reported as “relatively unaffected”. For the same molecule, in the data set on MCF-7 tumor, the “Tumor volume measured externally, AV” value is recorded as 420.9 mm^3; the “Tumor volume measured externally, individual mouse (1-5)” value was 493.1 mm^3 and 595.4 mm^3 and 151.4 mm^3 and 486.0 mm^3 and 378.5 mm^3; the “Tumor weight at autopsy, AV” value is listed as 0.3145; the “Tumor weight at autopsy, individual mouse (1-5)” value was 0.3930 and 0.3862 and 0.3802 and 0.3290 and 0.0843. In the data set on MCF-7 tumor, the “Tumor inhibition rate (C − T)/C × 100%, tumor volume” value was determined as 37.69% and the “Tumor inhibition rate (C − T)/C × 100%, tumor weight” value was found to be 44.96%. Also, the “tumor size (FIGS. 6A-6B)” value in the data set on MCF-7 tumor (group of treated mice versus other groups) is recorded as “smaller”. In addition, in data set [5] (in vivo summary), the “ALT and AST values” was “low”. For the same molecule, the “mean ALT value (FIG. 10)” value in data set [5] (outliers removed) was “lower than plumbagin and even lower than vehicle treated mice”. Further, in data set [6] (5 mg/kg 21 days, 10 mg/kg 13 days, i.p, qd), the “animal deaths with treatment” value is “No animal died”. Further, the body weight loss result in data set [6] (in the course of the treatment) is on record as “minimum”. The “liver toxicity by H&E staining of liver tissue” value in [7] is “less toxic to liver as compared to plumbagin”. Also, the “gene families down-regulated as compared to untreated samples” value in the data set on MCF-7 cells [8] (MCF-7, 10 μM, interleukins, MMPs, CXCL family members) was above 2 fold. Also, the “'Atherosclerosis signaling' pathway” value in the data set with MCF-7 cells [8] is given as “affected”.

For the molecule `CC1=CC(=O)c2c(O)cccc2C1=O` [plumbagin, 5-hydroxy-2-methyl-1,4-naphthoquinone, reference compound], the inhibition at 5 µM in [1] (Homo sapiens, MCF7, 12 h, read-out: inhibits metabolic activity of cancer cells) is 90%. Also, the inhibition at 10 µM in [2] (Homo sapiens, BJ, 12 h, read-out: inhibits metabolic activity of normal cells BJ) is around 70%. In addition, the IC50 in data set [3] (Homo sapiens, HepG2, 24 h) is 10.2 µM. Moreover, the “apoptosis in cancer cells” value in the data set on MCF-7 cells [4] (5 μM, within 24 hr of treatment) is reported as “induces apoptosis”. Also, in the data set on MCF-7 tumor, the “Tumor volume measured externally, AV” value is 560.2 mm^3; the “Tumor weight at autopsy, AV” value is listed as 0.6020; the “Tumor inhibition rate (C − T)/C × 100%, tumor volume” value is reported as 17.07%; the “Tumor inhibition rate (C − T)/C × 100%, tumor weight” value is −5.35%. In addition, in the data set with MCF-7 tumor (listed as Compound P), the “Tumor volume measured externally, individual mouse (1-5)” value is 1441.7 mm^3 and 260.9 mm^3 and 234.5 mm^3 and 303.8 mm^3; the “Tumor weight at autopsy, individual mouse (1-5)” value is 1.3530 and 0.4301 and 0.3675 and 0.2574. Further, in [6] (2 mg/kg dose, separate regimen with 1, 2 and 3 mg/kg), the “tolerance by mice (body weight loss)” value is “well tolerated”. In addition, in the data set on MCF-7 cells [8], the “'Atherosclerosis signaling' pathway” value is listed as “not”.
